The supplement of paper PMC10307832

Key:
Assay in all cases: relative viability (nuclei count vs DMSO), 5 days (fraction); higher = more cells survive
Midostaurin + Pictilisib = compound: CO[C@@H]1[C@H](N(C)C(=O)c2ccccc2)C[C@H]2O[C@]1(C)n1c3ccccc3c3c4c(c5c6ccccc6n2c5c31)C(=O)NC4 [Midostaurin] + CS(=O)(=O)N1CCN(Cc2cc3nc(-c4cccc5[nH]ncc45)nc(N4CCOCC4)c3s2)CC1 [Pictilisib] (partner 1 µM)
Procedure, shortened: (§1)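 Lung cancer cell lines, seeded in 1536-well plates, were treated the following day by pin tool with a single drug or with five library-drug doses (not always all listed) in √10 steps on top of a fixed anchor-drug dose. Cells were fixed and nuclei stained in one step after 5 days, and nuclei were counted. Relative viability is the nuclei count for treated wells divided by that for vehicle wells, reported as medians of duplicate plates.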

Midostaurin + Tozasertib = compound: CO[C@@H]1[C@H](N(C)C(=O)c2ccccc2)C[C@H]2O[C@]1(C)n1c3ccccc3c3c4c(c5c6ccccc6n2c5c31)C(=O)NC4 [Midostaurin] + Cc1cc(Nc2cc(N3CCN(C)CC3)nc(Sc3ccc(NC(=O)C4CC4)cc3)n2)n[nH]1 [Tozasertib] (partner 0.1 µM)
Procedure, shortened: as §1

Midostaurin + Linsitinib = compound: CO[C@@H]1[C@H](N(C)C(=O)c2ccccc2)C[C@H]2O[C@]1(C)n1c3ccccc3c3c4c(c5c6ccccc6n2c5c31)C(=O)NC4 [Midostaurin] + C[C@]1(O)C[C@@H](c2nc(-c3ccc4ccc(-c5ccccc5)nc4c3)c3c(N)nccn32)C1 [Linsitinib] (partner 1 µM)
Procedure, shortened: as §1

Midostaurin + OSI-027 = compound: CO[C@@H]1[C@H](N(C)C(=O)c2ccccc2)C[C@H]2O[C@]1(C)n1c3ccccc3c3c4c(c5c6ccccc6n2c5c31)C(=O)NC4 [Midostaurin] + COc1cccc2cc(-c3nc([C@H]4CC[C@H](C(=O)O)CC4)n4ncnc(N)c34)[nH]c12 [OSI-027] (partner 0.5 µM)
Procedure, shortened: as §1

Midostaurin + Crizotinib = compound: CO[C@@H]1[C@H](N(C)C(=O)c2ccccc2)C[C@H]2O[C@]1(C)n1c3ccccc3c3c4c(c5c6ccccc6n2c5c31)C(=O)NC4 [Midostaurin] + C[C@@H](Oc1cc(-c2cnn(C3CCNCC3)c2)cnc1N)c1c(Cl)ccc(F)c1Cl [Crizotinib] (partner 1 µM)
Procedure, shortened: as §1

Cell Line | relative viability (Midostaurin + Pictilisib; first compound 0.01 µM) | relative viability (Midostaurin + Pictilisib; first compound 0.03162 µM) | relative viability (Midostaurin + Pictilisib; first compound 0.1 µM) | relative viability (Midostaurin + Pictilisib; first compound 0.3162 µM) | relative viability (Midostaurin + Tozasertib; first compound 0.01 µM) | relative viability (Midostaurin + Tozasertib; first compound 0.03162 µM) | relative viability (Midostaurin + Tozasertib; first compound 0.1 µM) | relative viability (Midostaurin + Tozasertib; first compound 0.3162 µM) | relative viability (Midostaurin + Linsitinib; first compound 0.01 µM) | relative viability (Midostaurin + Linsitinib; first compound 0.03162 µM) | relative viability (Midostaurin + Linsitinib; first compound 0.1 µM) | relative viability (Midostaurin + Linsitinib; first compound 0.3162 µM) | relative viability (Midostaurin + OSI-027; first compound 0.01 µM) | relative viability (Midostaurin + OSI-027; first compound 0.03162 µM) | relative viability (Midostaurin + OSI-027; first compound 0.1 µM) | relative viability (Midostaurin + OSI-027; first compound 0.3162 µM) | relative viability (Midostaurin + Crizotinib; first compound 0.01 µM) | relative viability (Midostaurin + Crizotinib; first compound 0.03162 µM) | relative viability (Midostaurin + Crizotinib; first compound 0.1 µM) | relative viability (Midostaurin + Crizotinib; first compound 0.3162 µM)
HCC-15 | 0.785 | 0.705 | 0.762 | 0.823 | 0.449 | 0.419 | 0.249 | 0.324 | 0.886 | 0.898 | 0.904 | 0.818 | 0.758 | 0.624 | 0.698 | 0.717 | 0.842 | 0.829 | 0.841 | 0.847
HCC-44 | 0.571 | 0.576 | 0.692 | 0.327 |  | 1.04 | 0.819 | 0.778 | 0.756 | 0.659 | 0.579 | 0.609 |  | 0.501 | 0.529 | 0.401 | 0.747 | 0.787 | 0.697 | 0.627
HCC-78 | 0.216 | 0.216 | 0.229 | 0.19 | 0.421 | 0.422 | 0.408 | 0.366 | 0.53 | 0.483 | 0.556 | 0.278 | 0.432 | 0.332 | 0.381 | 0.299 | 0.363 | 0.288 | 0.38 | 0.329
HCC-366 | 0.167 | 0.116 | 0.142 | 0.137 | 0.146 | 0.126 | 0.0694 | 0.0567 | 0.624 | 0.754 | 0.457 | 0.381 | 0.961 | 0.954 | 0.567 | 0.811 | 0.504 | 0.505 | 0.445 | 0.522
HCC-827 | 1.03 | 1 | 1.16 | 1.25 | 0.407 | 0.352 | 0.4 | 0.416 | 0.928 | 0.883 | 0.852 | 1.06 | 0.719 | 0.708 | 0.821 | 0.8 | 0.856 | 0.844 | 0.858 | 0.905
HOP-62 | 0.804 | 0.641 | 0.735 | 1.11 | 0.363 | 0.431 | 0.303 | 0.321 | 1.1 | 0.911 | 0.938 | 0.995 | 0.779 | 0.754 | 0.947 | 0.686 | 0.846 | 0.624 | 0.988 | 1.15
IA-LM | 0.405 |  | 0.497 | 0.449 |  |  |  |  | 0.557 | 0.378 | 0.711 | 0.673 |  |  |  |  | 0.751 | 0.712 | 0.606 | 0.448
LC-2-ad | 0.432 | 0.416 | 0.497 | 0.24 | 0.509 | 0.545 | 0.52 | 0.422 | 0.851 | 0.768 | 0.849 | 0.631 | 0.792 | 0.791 | 0.898 | 0.847 | 0.469 | 0.428 | 0.485 | 0.483
NCI-H522 |  |  |  |  | 0.557 | 0.607 | 0.629 | 0.621 |  |  |  |  | 0.712 | 0.729 | 0.668 | 0.766 |  |  |  | 
NCI-H1299 | 0.838 | 0.73 | 0.527 | 0.273 |  |  |  |  | 0.943 | 0.91 | 0.95 | 0.616 |  |  |  |  | 0.929 | 0.914 | 0.941 | 0.86
NCI-H1395 | 0.592 | 0.588 | 0.588 | 0.615 | 0.726 | 0.785 | 0.708 | 0.769 | 1.06 | 1.22 | 1.01 | 1.02 | 0.591 | 0.675 | 0.615 | 0.763 |  |  |  | 
NCI-H1563 | 0.605 | 0.722 | 0.599 | 0.692 |  |  |  |  | 1.16 | 1.2 | 1.03 | 1.11 | 0.766 | 0.727 | 0.72 | 0.745 | 0.817 | 0.872 | 0.85 | 0.834
NCI-H1623 |  |  |  |  | 0.445 | 0.481 | 0.433 | 0.446 |  |  |  |  | 0.455 | 0.471 | 0.465 | 0.561 |  |  |  | 
NCI-H1648 |  |  |  |  | 0.511 | 0.609 | 0.417 | 0.299 |  |  |  |  | 0.285 | 0.221 | 0.275 | 0.233 |  |  |  | 
NCI-H1650 | 0.616 | 0.592 | 0.657 | 0.569 | 0.391 | 0.359 | 0.357 | 0.342 |  |  |  |  | 0.574 | 0.71 | 0.647 | 0.597 | 1.06 | 1.06 | 1.03 | 0.702
NCI-H1703 | 0.276 | 0.226 | 0.245 | 0.197 |  |  |  |  | 0.838 | 0.69 | 0.672 | 0.296 |  |  |  |  | 0.73 | 0.569 | 0.684 | 0.221
NCI-H1792 | 0.323 | 0.25 | 0.257 | 0.244 |  |  |  |  | 0.577 | 0.556 | 0.499 | 0.526 | 0.664 | 0.8 | 0.659 | 0.617 | 0.947 | 1.02 | 0.967 | 1.02
NCI-H1793 | 0.378 | 0.097 | 0.217 | 0.49 | 0.38 | 0.39 | 0.313 | 0.184 | 1.08 | 0.77 | 0.651 | 0.559 | 0.319 | 0.287 | 0.263 | 0.216 |  |  |  | 
NCI-H2170 | 0.31 | 0.28 | 0.301 | 0.317 | 0.681 | 0.769 | 0.729 | 0.621 |  |  |  |  | 0.697 | 0.681 | 0.683 | 0.79 | 1.18 | 1.24 | 1.15 | 1.29
NCI-H2342 |  |  |  |  | 0.57 | 0.487 | 0.551 | 0.538 |  |  |  |  | 0.667 | 0.619 | 0.658 | 0.74 |  |  |  | 
SW 900 |  |  |  |  | 0.578 | 0.525 | 0.59 | 0.466 |  |  |  |  | 0.541 | 0.484 | 0.75 | 0.478 |  |  |  | 
